Converted amounts (≈) assume the structure as drawn. Some results are limits rather than exact numbers.

Experiment [1] concerns Candida albicans. The experiment is described as follows: Antifungal activity against Candida albicans ATCC 10231. The experiment is classed as functional.
For experiment [2], the system named is Salmonella typhimurium. Nature of the experiment: Antibacterial activity against Salmonella Typhimurium ATCC 14028. The experiment is classed as functional, Salmonella enterica subsp. enterica serovar Typhimurium. The settings on record: Salmonella enterica.
Experiment [3] deals with Bacillus subtilis. Nature of the experiment: Antibacterial activity against Bacillus subtilis ATCC 6633. The format is functional.
Experiment [4] deals with Proteus vulgaris. The experiment is described as follows: Antibacterial activity against Proteus vulgaris ATCC 3851. The format is functional.
Experiment [5] concerns Micrococcus luteus. Nature of the experiment: Antibacterial activity against Micrococcus luteus IFO 12708. The format is functional.
For experiment [6], the system named is Staphylococcus aureus. The experiment is described as follows: Antibacterial activity against Staphylococcus aureus ATCC 6538p. The experiment is classed as functional.
A short description of experiment [7]: Inhibition of isocitrate lyase.
The test system of experiment [8] is K562. Nature of the experiment: Cytotoxicity against human K562 cells. The experiment is classed as functional. The settings on record: read-out: LC50 (the source's name).
The subject of experiment [9] is Escherichia coli. Nature of the experiment: Antibacterial activity against Escherichia coli ATCC 35270. The experiment is classed as functional.
Experiment [10] deals with Trichophyton mentagrophytes. Nature of the experiment: Antifungal activity against Trichophyton mentagrophytes IFO 40996. The experiment is classed as functional.
The test system of experiment [11] is Aspergillus fumigatus. The experiment is described as follows: Antifungal activity against Aspergillus fumigatus HIC 6094. The format is functional.
Experiment [12] deals with Trichophyton rubrum. Nature of the experiment: Antifungal activity against Trichophyton rubrum IFO 9185. The experiment is classed as functional.
The nature of experiment [13]: Inhibition of Na+/K+ ATPase.

In general, MIC refers to the lowest concentration that inhibits growth of the organism. As a reminder, the IC50 is the concentration at which inhibition is half-maximal. A lower IC50 goes with greater potency. Turning to `CCCCCCCCCCC/C=C/C[C@H](OS(=O)(=O)O)[C@H](O)[C@H](N)CO`, the MIC in experiment [1] is 50 µg/mL (≈ 126 µM); in experiment [2], 100 µg/mL (≈ 253 µM); in experiment [3] it was 6 µg/mL (≈ 15.2 µM); in [4], 25 µg/mL (≈ 63.2 µM); in experiment [5], 25 µg/mL (≈ 63.2 µM); in experiment [6], 50 µg/mL (≈ 126 µM). Further, the MIC in experiment [9] was above 100 µg/mL; in [10], 50 µg/mL (≈ 126 µM); in experiment [11] it was 100 µg/mL (≈ 253 µM); in [12] it was above 100 µg/mL. Further, the IC50 came out at 2 µM in experiment [7] and 25 µM in experiment [13]. For the same compound, the CC50 in experiment [8] amounted to 8 µM.
Consider `CCCCCCCCCC/C=C/C[C@H](OS(=O)(=O)O)[C@H](O)[C@H](N)CO`, for which the MIC in experiment [1] was above 100 µg/mL; in experiment [2], above 100 µg/mL; in experiment [3] it was 12 µg/mL (≈ 31.5 µM); in experiment [4], 25 µg/mL (≈ 65.5 µM); in [5], 100 µg/mL (≈ 262 µM); in [6], above 100 µg/mL. Besides, the MIC in experiment [9], in experiment [10], in experiment [11] and in experiment [12] was above 100 µg/mL each time. Also, the IC50 worked out at 20 µM in experiment [7] and 21 µM in experiment [13]. Moreover, the CC50 in [8] came to 7 µM.
Turning to `CC(C)CCCCCCCC/C=C/C[C@H](OS(=O)(=O)O)[C@H](O)[C@H](N)CO`, the MIC was above 100 µg/mL in experiment [1]; 100 µg/mL (≈ 253 µM) in [2]; 100 µg/mL (≈ 253 µM) in experiment [3]; 100 µg/mL (≈ 253 µM) in experiment [4]; 100 µg/mL (≈ 253 µM) in experiment [5]; above 100 µg/mL in [6]. Further, the MIC in experiment [9], in [10], in experiment [11] and in experiment [12] was above 100 µg/mL in each case. Moreover, the figures for the IC50 in [7] and in experiment [13] were 24 µM and 21 µM, respectively. For the same compound, the CC50 in experiment [8] was 8 µM.
`O=C(O)CC[N+](=O)[O-]` showed an IC50 in [7] of 1 µM.
On to `CCCCCC[C@H]1C[C@H]1CCCCCCCCCC(=O)OC[C@@H](O)COP(=O)([O-])OCC(O)CO.[Na+]` (relative stereo), for which the MIC in experiment [1] is 13 µg/mL; in experiment [4] it was above 100 µg/mL; in experiment [6] it was above 100 µg/mL; in [11] it was above 100 µg/mL. The IC50 was determined as 87 µM in experiment [7] and 4 µM in experiment [13]. For the same compound, the CC50 in experiment [8] worked out at 4 µM.
For the compound `C[C@@H]1[C@H](O)[C@@H](C)/C=C/C=C/C=C/C=C/C=C/C=C/C=C/[C@H](O[C@@H]2O[C@H](C)[C@@H](O)[C@H](N)[C@@H]2O)C[C@@H]2O[C@](O)(C[C@@H](O)C[C@@H](O)[C@H](O)CC[C@@H](O)C[C@@H](O)CC(=O)O[C@H]1C)C[C@H](O)[C@H]2C(=O)O` [AMPHOTERICIN B], the MIC was determined as 1 µg/mL (≈ 1.08 µM) in [1], 2 µg/mL (≈ 2.16 µM) in experiment [10], 1 µg/mL (≈ 1.08 µM) in experiment [11] and 2 µg/mL (≈ 2.16 µM) in experiment [12].
As for `CC1(C)S[C@@H]2[C@H](NC(=O)[C@H](N)c3ccccc3)C(=O)N2[C@H]1C(=O)O` [AMPICILLIN], the MIC worked out at 2 µg/mL (≈ 5.72 µM) in experiment [2]; 2 µg/mL (≈ 5.72 µM) in experiment [3]; 1 µg/mL (≈ 2.86 µM) in [4]; 2 µg/mL (≈ 5.72 µM) in experiment [5]; 1 µg/mL (≈ 2.86 µM) in experiment [6]; 6 µg/mL (≈ 17.2 µM) in experiment [9].
Take `COc1cccc2c1C(=O)c1c(O)c3c(c(O)c1C2=O)C[C@@](O)(C(=O)CO)C[C@@H]3O[C@H]1C[C@H](N)[C@H](O)[C@H](C)O1` [DOXORUBICIN]: the CC50 in experiment [8] turned out to be 7 µM.
Take `C[C@@H]1O[C@@H](O[C@H]2C[C@@H](O)[C@]3(CO)[C@H]4[C@H](O)C[C@]5(C)[C@@H](C6=CC(=O)OC6)CC[C@]5(O)[C@@H]4CC[C@]3(O)C2)[C@H](O)[C@H](O)[C@H]1O` [OUABAIN]: in [13], inhibition was half-maximal at 4 µM (IC50).

(Values after ChEMBL document CHEMBL1938237, “Bioactive lipids from the sponge Spirastrella abata” (Bioorg Med Chem Lett, 2012).)
